From patent US20230085307A1, “PYRIDAZINONE COMPOUND AND HERBICIDE” (NISSAN CHEMICAL CORPORATION, priority 2019, published 2023)

Experiments:
velvetleaf [1] = assay: Test Example 5: herbicidal effect by foliage application, plastic box (Table 20, symbol M); format: in vivo, velvetleaf (Abutilon theophrasti); settings: foliage application, 320 g/ha, three weeks after application
Method in brief: (§1)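 Post-emergence foliar test in sterilized diluvial soil. Compound applied as water-diluted emulsion at a predetermined rate to 14-day-old plants; evaluation at three weeks.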

green foxtail [2] = assay: Test Example 4: herbicidal effect by soil treatment (Table 19, symbol G); format: in vivo, green foxtail (Setaria viridis); settings: amount of applied herbicide 320 g/ha
Method in brief: (§2)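 Emulsion of test compound, water-diluted to predetermined amount, sprayed on soil after sowing (seed depth ~1.5 cm, sterilized diluvial soil). Greenhouse, 25–30° C. Effect graded at three weeks post-spray.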

persian speedwell [3] = assay: Test Example 4: herbicidal effect by soil treatment (Table 19, symbol R); format: in vivo, Persian speedwell (Veronica persica); settings: amount of applied herbicide 320 g/ha
Method in brief: as §2

southern crabgrass [4] = assay: Test Example 5: herbicidal effect by foliage application, plastic box (Table 20, symbol F); format: in vivo, southern crabgrass (Digitaria ciliaris); settings: foliage application, 320 g/ha, three weeks after application
Method in brief: as §1

green foxtail [5] = assay: Test Example 5: herbicidal effect by foliage application, plastic box (Table 20, symbol G); format: in vivo, green foxtail (Setaria viridis); settings: foliage application, 320 g/ha, three weeks after application
Method in brief: as §1

false cleavers [6] = assay: Test Example 5: herbicidal effect by foliage application, plastic box (Table 20, symbol Q); format: in vivo, false cleavers (Galium spurium); settings: foliage application, 320 g/ha, three weeks after application
Method in brief: as §1

redroot pigweed [7] = assay: Test Example 4: herbicidal effect by soil treatment (Table 19, symbol N); format: in vivo, redroot pigweed (Amaranthus retroflexus); settings: amount of applied herbicide 320 g/ha
Method in brief: as §2

persian speedwell [8] = assay: Test Example 5: herbicidal effect by foliage application, plastic box (Table 20, symbol R); format: in vivo, Persian speedwell (Veronica persica); settings: foliage application, 320 g/ha, three weeks after application
Method in brief: as §1

Italian ryegrass [9] = assay: Test Example 4: herbicidal effect by soil treatment (Table 19, symbol K); format: in vivo, Italian ryegrass (Lolium multiflorum); settings: amount of applied herbicide 320 g/ha
Method in brief: as §2

barnyard grass [10] = assay: Test Example 3: herbicidal effect by foliage application, Wagner pot (Table 18, symbol H); format: in vivo, barnyard grass (Echinochloa crus-galli); settings: 320 g/ha
Method in brief: (§3)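 Plants were sown in alluvial soil held under 0.1–0.5 cm standing water and grown 14 days in a greenhouse at 25–30 °C. An emulsifiable formulation, water-diluted to the set dose, was then sprayed onto the foliage, and effects were scored three weeks later using previously defined criteria.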

windgrass [11] = assay: Test Example 5: herbicidal effect by foliage application, plastic box (Table 20, symbol L); format: in vivo, windgrass (Apera spica-venti); settings: foliage application, 320 g/ha, three weeks after application
Method in brief: as §1

velvetleaf [12] = assay: Test Example 4: herbicidal effect by soil treatment (Table 19, symbol M); format: in vivo, velvetleaf (Abutilon theophrasti); settings: amount of applied herbicide 320 g/ha
Method in brief: as §2

Chinese sprangletop = assay: Test Example 3: herbicidal effect by foliage application, Wagner pot (Table 18, symbol D); format: in vivo, chinese sprangletop (Leptochloa chinensis); settings: 320 g/ha
Method in brief: as §3

lambsquarters [13] = assay: Test Example 5: herbicidal effect by foliage application, plastic box (Table 20, symbol O); format: in vivo, lambsquarters (Chenopodium album); settings: foliage application, 320 g/ha, three weeks after application
Method in brief: as §1

chickweed [14] = assay: Test Example 4: herbicidal effect by soil treatment (Table 19, symbol P); format: in vivo, common chickweed (Stellaria media); settings: amount of applied herbicide 320 g/ha
Method in brief: as §2

wild oat [15] = assay: Test Example 4: herbicidal effect by soil treatment (Table 19, symbol I); format: in vivo, wild oat (Avena fatua); settings: amount of applied herbicide 320 g/ha
Method in brief: as §2

Italian ryegrass [16] = assay: Test Example 5: herbicidal effect by foliage application, plastic box (Table 20, symbol K); format: in vivo, Italian ryegrass (Lolium multiflorum); settings: foliage application, 320 g/ha, three weeks after application
Method in brief: as §1

windgrass [17] = assay: Test Example 4: herbicidal effect by soil treatment (Table 19, symbol L); format: in vivo, windgrass (Apera spica-venti); settings: amount of applied herbicide 320 g/ha
Method in brief: as §2

blackgrass [18] = assay: Test Example 5: herbicidal effect by foliage application, plastic box (Table 20, symbol J); format: in vivo, blackgrass (Alopecurus myosuroides); settings: foliage application, 320 g/ha, three weeks after application
Method in brief: as §1

lambsquarters [19] = assay: Test Example 4: herbicidal effect by soil treatment (Table 19, symbol O); format: in vivo, lambsquarters (Chenopodium album); settings: amount of applied herbicide 320 g/ha
Method in brief: as §2

southern crabgrass [20] = assay: Test Example 4: herbicidal effect by soil treatment (Table 19, symbol F); format: in vivo, southern crabgrass (Digitaria ciliaris); settings: amount of applied herbicide 320 g/ha
Method in brief: as §2

rice flat sedge = assay: Test Example 3: herbicidal effect by foliage application, Wagner pot (Table 18, symbol E); format: in vivo, rice flat sedge (Cyperus iria); settings: 320 g/ha
Method in brief: as §3

barnyard grass [21] = assay: Test Example 4: herbicidal effect by soil treatment (Table 19, symbol H); format: in vivo, barnyard grass (Echinochloa crus-galli); settings: amount of applied herbicide 320 g/ha
Method in brief: as §2

chickweed [22] = assay: Test Example 5: herbicidal effect by foliage application, plastic box (Table 20, symbol P); format: in vivo, common chickweed (Stellaria media); settings: foliage application, 320 g/ha, three weeks after application
Method in brief: as §1

barnyard grass [23] = assay: Test Example 5: herbicidal effect by foliage application, plastic box (Table 20, symbol H); format: in vivo, barnyard grass (Echinochloa crus-galli); settings: foliage application, 320 g/ha, three weeks after application
Method in brief: as §1

wild oat [24] = assay: Test Example 5: herbicidal effect by foliage application, plastic box (Table 20, symbol I); format: in vivo, wild oat (Avena fatua); settings: foliage application, 320 g/ha, three weeks after application
Method in brief: as §1

redroot pigweed [25] = assay: Test Example 5: herbicidal effect by foliage application, plastic box (Table 20, symbol N); format: in vivo, redroot pigweed (Amaranthus retroflexus); settings: foliage application, 320 g/ha, three weeks after application
Method in brief: as §1

false cleavers [26] = assay: Test Example 4: herbicidal effect by soil treatment (Table 19, symbol Q); format: in vivo, false cleavers (Galium spurium); settings: amount of applied herbicide 320 g/ha
Method in brief: as §2

blackgrass [27] = assay: Test Example 4: herbicidal effect by soil treatment (Table 19, symbol J); format: in vivo, blackgrass (Alopecurus myosuroides); settings: amount of applied herbicide 320 g/ha
Method in brief: as §2

SMILES	herbicidal effect grade, M: velvetleaf (velvetleaf [1])	herbicidal effect rating, G: green foxtail (green foxtail [2])	herbicidal effect rating, R: persian speedwell (persian speedwell [3])	herbicidal effect grade, F: southern crabgrass (southern crabgrass [4])	herbicidal effect grade, G: green foxtail (green foxtail [5])	herbicidal effect grade, Q: false cleavers (false cleavers [6])	herbicidal effect rating, N: redroot pigweed (redroot pigweed [7])	herbicidal effect grade, R: persian speedwell (persian speedwell [8])	herbicidal effect rating, K: Italian ryegrass (Italian ryegrass [9])	herbicidal effect on H (barnyard grass), rating 0-5 (barnyard grass [10])	herbicidal effect grade, L: windgrass (windgrass [11])	herbicidal effect rating, M: velvetleaf (velvetleaf [12])	herbicidal effect on D (Chinese sprangletop), rating 0-5 (Chinese sprangletop)	herbicidal effect grade, O: lambsquarters (lambsquarters [13])	herbicidal effect rating, P: chickweed (chickweed [14])	herbicidal effect rating, I: wild oat (wild oat [15])	herbicidal effect grade, K: Italian ryegrass (Italian ryegrass [16])	herbicidal effect rating, L: windgrass (windgrass [17])	herbicidal effect grade, J: blackgrass (blackgrass [18])	herbicidal effect rating, O: lambsquarters (lambsquarters [19])	further results
COc1cc(Cl)ccc1-c1sc2ccccc2c1-c1c(O)c(C)nn(C)c1=O [1-060]	3 (Herbicidal rate of 40% or more and less than 70%)	0 (Herbicidal rate of 5% or less (almost no effect))	5 (Herbicidal rate of 90% or more (almost completely withered))	3 (Herbicidal rate of 40% or more and less than 70%)	3 (Herbicidal rate of 40% or more and less than 70%)	5 (Herbicidal rate of 90% or more (almost completely withered))	0 (Herbicidal rate of 5% or less (almost no effect))	5 (Herbicidal rate of 90% or more (almost completely withered))	0 (Herbicidal rate of 5% or less (almost no effect))	4 (Herbicidal rate of 70% or more and less than 90%)	5 (Herbicidal rate of 90% or more (almost completely withered))	0 (Herbicidal rate of 5% or less (almost no effect))	3 (Herbicidal rate of 40% or more and less than 70%)	5 (Herbicidal rate of 90% or more (almost completely withered))	4 (Herbicidal rate of 70% or more and less than 90%)	0 (Herbicidal rate of 5% or less (almost no effect))	3 (Herbicidal rate of 40% or more and less than 70%)	1 (Herbicidal rate of 5% or more and less than 20%)	3 (Herbicidal rate of 40% or more and less than 70%)	0 (Herbicidal rate of 5% or less (almost no effect))	herbicidal effect rating, F: southern crabgrass (southern crabgrass [20]): 0 (Herbicidal rate of 5% or less (almost no effect)); herbicidal effect on E (rice flat sedge), rating 0-5 (rice flat sedge): 4 (Herbicidal rate of 70% or more and less than 90%); herbicidal effect rating, H: barnyard grass (barnyard grass [21]): 0 (Herbicidal rate of 5% or less (almost no effect)); herbicidal effect grade, P: chickweed (chickweed [22]): 5 (Herbicidal rate of 90% or more (almost completely withered)); herbicidal effect grade, H: barnyard grass (barnyard grass [23]): 3 (Herbicidal rate of 40% or more and less than 70%); herbicidal effect grade, I: wild oat (wild oat [24]): 3 (Herbicidal rate of 40% or more and less than 70%); herbicidal effect grade, N: redroot pigweed (redroot pigweed [25]): 3 (Herbicidal rate of 40% or more and less than 70%); herbicidal effect rating, Q: false cleavers (false cleavers [26]): 3 (Herbicidal rate of 40% or more and less than 70%); herbicidal effect rating, J: blackgrass (blackgrass [27]): 0 (Herbicidal rate of 5% or less (almost no effect))
CCCC(=O)Oc1c(C)nn(C)c(=O)c1-c1c(-c2cc(C)c(OC)c(C)c2)sc2ccccc12 [1-075]	0 (Herbicidal rate of 5% or less (almost no effect))	0 (Herbicidal rate of 5% or less (almost no effect))	3 (Herbicidal rate of 40% or more and less than 70%)	0 (Herbicidal rate of 5% or less (almost no effect))	0 (Herbicidal rate of 5% or less (almost no effect))	0 (Herbicidal rate of 5% or less (almost no effect))	0 (Herbicidal rate of 5% or less (almost no effect))	5 (Herbicidal rate of 90% or more (almost completely withered))	0 (Herbicidal rate of 5% or less (almost no effect))	3 (Herbicidal rate of 40% or more and less than 70%)	0 (Herbicidal rate of 5% or less (almost no effect))	0 (Herbicidal rate of 5% or less (almost no effect))	0 (Herbicidal rate of 5% or less (almost no effect))	0 (Herbicidal rate of 5% or less (almost no effect))	0 (Herbicidal rate of 5% or less (almost no effect))	0 (Herbicidal rate of 5% or less (almost no effect))	3 (Herbicidal rate of 40% or more and less than 70%)	0 (Herbicidal rate of 5% or less (almost no effect))	0 (Herbicidal rate of 5% or less (almost no effect))	0 (Herbicidal rate of 5% or less (almost no effect))	herbicidal effect rating, F: southern crabgrass (southern crabgrass [20]): 0 (Herbicidal rate of 5% or less (almost no effect)); herbicidal effect on E (rice flat sedge), rating 0-5 (rice flat sedge): 5 (Herbicidal rate of 90% or more (almost completely withered)); herbicidal effect rating, H: barnyard grass (barnyard grass [21]): 1 (Herbicidal rate of 5% or more and less than 20%); herbicidal effect grade, P: chickweed (chickweed [22]): 0 (Herbicidal rate of 5% or less (almost no effect)); herbicidal effect grade, H: barnyard grass (barnyard grass [23]): 0 (Herbicidal rate of 5% or less (almost no effect)); herbicidal effect grade, I: wild oat (wild oat [24]): 0 (Herbicidal rate of 5% or less (almost no effect)); herbicidal effect grade, N: redroot pigweed (redroot pigweed [25]): 3 (Herbicidal rate of 40% or more and less than 70%); herbicidal effect rating, Q: false cleavers (false cleavers [26]): 0 (Herbicidal rate of 5% or less (almost no effect)); herbicidal effect rating, J: blackgrass (blackgrass [27]): 0 (Herbicidal rate of 5% or less (almost no effect))
